Laboratory results as given in patent US11578060B2, “JAK3 selective inhibitor” (PEKING UNIVERSITY SHENZHEN GRADUATE SCHOOL, priority 2018, dated 2023).

Legend:
STAT5 phosphorylation = assay: Cell washout experiment, IL-15-stimulated CTLL-2 cells; format: cell-based, Mouse; conditions: CTLL-2, 2 h treatment, washed three times, IL-15 30 min
Method: The washout procedures are as follows: CTLL-2 cells were treated with compounds for 2 hours. Then, for washout groups, cells were washed three times with PBS. The non-washout groups were kept constant. Cells were then stimulated with IL-15 for 30 min, lysed, and subjected to standard Western blot. Cells, treated with compounds, were extensively washed with PBS.

GSK3β = GSK3β (Homo sapiens, UniProt P49841); assay: Selectivity assay against a panel of kinases: GSK3β; format: biochemical; conditions: tested at 1 μM
[1] = system: IL-15-induced STAT5 phosphorylation; assay: IL-15-induced STAT5 phosphorylation in PBMC (Western blot); format: cell-based, human
[2] = system: IL-2-induced STAT5 phosphorylation; assay: IL-2-induced STAT5 phosphorylation in PBMC (Western blot)
PKCγ = PKCγ (Homo sapiens, UniProt P05129); assay: Selectivity assay against a panel of kinases: PKCγ; format: biochemical; conditions: tested at 1 μM
MCP-1 release = assay: IL-6 stimulated MCP-1 release assay; format: cell-based, human
Method: (§1) The LPS-induced IL-6 and TNF-α release assay was carried out as follows: frozen PBMCs (from Allcells) were thawed in RPMI1640 (Thermo Fisher) containing 10% FBS and recovered overnight at 37° C. The next day, cells were diluted to 1×10^6 cells/mL and seeded (500 μL) in 6-well plates. Compounds or DMSO (5 μL, serially diluted in DMSO) were added to the plates and incubated with cells for 2 h at 37° C., followed by stimulation with LPS (5 μL, 1 μg/mL) and incubation for 24 h at 37° C. in 5% CO2. Supernatants were collected for determination of IL-6 and TNF-α levels using human IL-6 or human THF-α DuoSet ELISA Kits (R&D Systems) according to the manufacturer's instructions.
IL-6 stimulated inflammatory cytokine MCP-1 release assay was performed in a similar way.

[3] = system: STAT3 phosphorylation (IL-6 signal pathway); assay: Cellular selectivity assay: IL-6-stimulated STAT3 phosphorylation in PBMCs; format: cell-based, human; conditions: IL-6, doses as high as 10 μM
PKCα = PKCα (Homo sapiens, UniProt P17252); assay: Selectivity assay against a panel of kinases: PKCα; format: biochemical; conditions: tested at 1 μM
panel of kinases = conditions: tested at 1 μM
TNF-α release = assay: LPS-induced TNF-α release assay in PBMCs (ELISA); format: cell-based, human; conditions: LPS-challenged PBMCs, 24 h
Method: as §1

[4] = system: STAT1 phosphorylation (IFN-α signal pathway); assay: Cellular selectivity assay: IFN-α-stimulated STAT1 phosphorylation in PBMCs; format: cell-based, human; conditions: doses as high as 10 μM
IL-6 release = assay: LPS-induced IL-6 release assay in PBMCs (ELISA); format: cell-based, human; conditions: LPS-challenged PBMCs, 24 h
Method: as §1

[5] = system: phosphorylation of downstream substrates of JAKs; conditions: PBMCs; IL-15, IL-6, IFN-α

GSK3β, sequence (P49841 whole entry, species assumed): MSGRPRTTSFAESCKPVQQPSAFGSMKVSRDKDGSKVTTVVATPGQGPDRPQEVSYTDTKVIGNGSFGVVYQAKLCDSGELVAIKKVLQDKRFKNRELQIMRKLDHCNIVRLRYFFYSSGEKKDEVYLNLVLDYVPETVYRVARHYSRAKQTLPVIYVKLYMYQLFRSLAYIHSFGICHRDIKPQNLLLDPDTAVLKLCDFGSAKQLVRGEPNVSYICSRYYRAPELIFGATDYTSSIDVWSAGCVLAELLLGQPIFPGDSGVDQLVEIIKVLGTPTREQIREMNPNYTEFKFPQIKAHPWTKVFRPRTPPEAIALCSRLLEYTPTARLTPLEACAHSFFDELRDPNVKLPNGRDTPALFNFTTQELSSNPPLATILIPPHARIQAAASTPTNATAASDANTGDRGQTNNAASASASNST

Compound | inhibition of STAT5 phosphorylation after washing out with PBS (STAT5 phosphorylation) | inhibition at 1 µM (GSK3β) [%] | inhibitory activity against IL-15-induced STAT5 phosphorylation compared with NIBR3049 ([1]; PBMC) | concentration that effectively abrogated phosphorylation of STAT5 ([1]; PBMCs, IL-15 stimulation) [nM] | inhibitory activity against IL-2-induced STAT5 phosphorylation compared with NIBR3049 [2] | inhibition at 1 µM (PKCγ) [%] | effect on IL-6-induced MCP-1 release (MCP-1 release) | inhibition of STAT3 phosphorylation [3] | inhibition at 1 µM (PKCα) [%] | inhibition of most kinases of the panel (panel of kinases) | effect on LPS-induced release of TNF-α (TNF-α release) | inhibition of STAT1 phosphorylation [4] | effect on LPS-induced release of IL-6 (IL-6 release) | cellular selectivity among JAKs (three cytokines) [5]
CC(C)(O)C(=O)N1CCN(c2ccc(C(F)(F)F)c(C3=C(c4c[nH]c5ccccc45)C(=O)NC3=O)c2)CC1 [NIBR3049, reference compound] | almost lost after washing out | – | – | – | – | – | – | – | – | – | – | – | – | –
C=CC(=O)N1CCN(c2ccc([N+](=O)[O-])c(C3=C(c4c[nH]c5ccccc45)C(=O)NC3=O)c2)CC1 [Compound 32, 3-(5-(4-acryloylpiperazin-1-yl)-2-(nitro)phenyl)-4-(1H-indol-3-yl)-1H-pyrrole-2,5-dione] | sustained inhibition of STAT5 phosphorylation | > 50 | higher inhibitory activity | 300 | higher inhibitory activity | > 50 | did not inhibit | only partial inhibition | > 50 | no more than 50% | significantly inhibited | only partial inhibition | significantly inhibited | –
Tofacitinib [reference compound] | almost lost after washing out | – | – | – | – | – | did not inhibit | – | – | – | increased cytokine production in different degrees | – | increased cytokine production in different degrees | did not show obvious selectivity
